The target of assay [1] is [Pyruvate dehydrogenase (acetyl-transferring)] kinase isozyme 2, mitochondrial (Homo sapiens) (UniProt Q15119). Description: Inhibition of human PDHK2 assessed as residual activity at 10 uM by scintillation counting based radiometry assay relative to control.
For assay [2], the species on record is Homo sapiens. Description: Inhibition of recombinant human DDR1 V833L mutant (492 to end residues) assessed as residual activity at 10 uM using KKKSPGEYVNIEF as substrate at 40 mins in presence of [gamma-33ATP] by scintillation counting based radiometry assay relative to control.
Assay [3] concerns Hepatocyte growth factor receptor (Homo sapiens), P08581 [D1228H]. In words: Inhibition of recombinant human MET A1209G/V1290L/D1246H mutant (974 to end residues) assessed as residual activity at 10 uM using KKKGQEEEYVFIE as substrate incubated for 40 mins in presence of [gamma-33ATP by scintillation counting based radiometry assay relative to control.
The target of assay [4] is Tyrosine-protein kinase ABL2 (Homo sapiens) (UniProt P42684). In words: Inhibition of human Arg (38 to end residues) assessed as residual activity at 10 uM using EAIYAAPFAKKK as substrate incubated for 40 mins in presence of [gamma-33ATP] by scintillation counting based radiometry assay relative to control.
Tyrosine-protein kinase ABL2 (Homo sapiens), sequence (P42684 whole entry): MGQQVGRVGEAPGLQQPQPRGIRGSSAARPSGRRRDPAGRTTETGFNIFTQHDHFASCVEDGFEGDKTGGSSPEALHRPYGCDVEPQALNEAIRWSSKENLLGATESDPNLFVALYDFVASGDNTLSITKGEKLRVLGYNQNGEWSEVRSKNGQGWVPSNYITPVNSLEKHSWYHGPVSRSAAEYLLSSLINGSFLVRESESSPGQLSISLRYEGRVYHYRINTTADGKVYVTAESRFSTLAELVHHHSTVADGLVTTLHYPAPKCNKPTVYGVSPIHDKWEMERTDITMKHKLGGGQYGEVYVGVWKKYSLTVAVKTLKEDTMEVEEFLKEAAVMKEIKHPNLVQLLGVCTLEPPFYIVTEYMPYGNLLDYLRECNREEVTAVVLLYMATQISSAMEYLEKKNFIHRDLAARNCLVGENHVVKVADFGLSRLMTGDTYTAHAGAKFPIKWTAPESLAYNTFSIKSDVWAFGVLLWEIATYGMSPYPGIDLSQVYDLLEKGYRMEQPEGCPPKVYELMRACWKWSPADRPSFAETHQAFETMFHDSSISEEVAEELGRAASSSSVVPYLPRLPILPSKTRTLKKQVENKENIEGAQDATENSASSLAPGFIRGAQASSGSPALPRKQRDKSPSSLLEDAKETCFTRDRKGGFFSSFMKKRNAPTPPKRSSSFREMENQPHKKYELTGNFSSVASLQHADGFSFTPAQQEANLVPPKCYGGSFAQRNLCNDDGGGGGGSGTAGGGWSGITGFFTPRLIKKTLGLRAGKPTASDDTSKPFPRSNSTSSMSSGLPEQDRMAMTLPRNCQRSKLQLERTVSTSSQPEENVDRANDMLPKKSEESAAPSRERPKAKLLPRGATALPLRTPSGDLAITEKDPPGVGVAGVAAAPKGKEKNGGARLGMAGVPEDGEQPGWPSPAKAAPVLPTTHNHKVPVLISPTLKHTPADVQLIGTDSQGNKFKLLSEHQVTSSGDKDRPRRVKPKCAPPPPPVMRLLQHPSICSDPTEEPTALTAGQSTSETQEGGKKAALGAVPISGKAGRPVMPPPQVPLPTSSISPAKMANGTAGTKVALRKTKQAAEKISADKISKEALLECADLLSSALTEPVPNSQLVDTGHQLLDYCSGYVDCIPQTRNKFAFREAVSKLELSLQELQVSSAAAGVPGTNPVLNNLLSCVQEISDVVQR
The target in assay [5] is Receptor-type tyrosine-protein kinase FLT3 (Homo sapiens) (UniProt P36888). Description: Inhibition of recombinant human FLT3 (564 to end residues) assessed as residual activity at 10 uM using EAIYAAPFAKKK as substrate at 40 mins in presence of [gamma-33ATP] by scintillation counting based radiometry assay relative to control.
Assay [6] addresses Ephrin type-A receptor 1 (Homo sapiens) (UniProt P21709). Description: Inhibition of recombinant human EphA1 (568 to end residues) assessed as residual activity at 10 uM using KKKSPGEYVNIEF as substrate at 40 mins in presence of [gamma-33ATP] by scintillation counting based radiometry assay relative to control.
Assay [7] deals with Cyclin-Y/Cyclin-dependent kinase 16 (Homo sapiens) (UniProt Q00536+Q8ND76). Description: Inhibition of recombinant full length human CDK16/cyclinY assessed as residual activity at 10 uM using PKSPKARKKL as substrate incubated for 120 mins in presence of [gamma-33ATP] by scintillation counting based radiometry assay relative to control. The assay is classed as protein-complex assay.

The subject of assay [8] is Tyrosine-protein kinase ABL1 (Homo sapiens), P00519 [M351T]. Description: Inhibition of human ABL1 M351T mutant (27 to end residues) assessed as residual activity at 10 uM using EAIYAAPFAKKK as substrate incubated for 40 mins in presence of [gamma-33ATP] by scintillation counting based radiometry assay relative to control.
Assay [9] deals with Protein-tyrosine kinase 6 (Homo sapiens) (UniProt Q13882). Description: Inhibition of recombinant full length human BRK assessed as residual activity at 10 uM using poly(Glu, Tyr) 4:1 as substrate incubated for 40 mins in presence of [gamma-33ATP] by scintillation counting based radiometry assay relative to control.
Protein-tyrosine kinase 6 (Homo sapiens), sequence (Q13882 whole entry, looked up): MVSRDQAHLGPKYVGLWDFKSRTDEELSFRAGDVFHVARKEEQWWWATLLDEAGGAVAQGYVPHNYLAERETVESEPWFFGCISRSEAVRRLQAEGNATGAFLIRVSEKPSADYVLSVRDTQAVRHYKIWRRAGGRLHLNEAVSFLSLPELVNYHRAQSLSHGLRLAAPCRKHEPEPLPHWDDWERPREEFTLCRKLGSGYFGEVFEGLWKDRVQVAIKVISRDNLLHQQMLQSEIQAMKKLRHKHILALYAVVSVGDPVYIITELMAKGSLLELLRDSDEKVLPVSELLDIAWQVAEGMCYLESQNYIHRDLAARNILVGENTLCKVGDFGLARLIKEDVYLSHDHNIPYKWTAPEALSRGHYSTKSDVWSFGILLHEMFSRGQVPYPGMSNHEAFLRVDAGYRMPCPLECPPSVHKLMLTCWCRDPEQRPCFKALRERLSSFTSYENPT
Assay [10] is filed under the species Homo sapiens. In words: Inhibition of recombinant full length human Aurora A I31F mutant assessed as residual activity at 10 uM using LRRASLG as substrate incubated for 40 mins in presence of [gamma-33ATP] by scintillation counting based radiometry assay relative to control.
The target of assay [11] is Ribosomal protein S6 kinase alpha-2 (Homo sapiens) (UniProt Q15349). Description: Inhibition of recombinant full length human Rsk3 assessed as residual activity at 10 uM using KKKNRTLSVA as substrate incubated for 40 mins in presence of [gamma33P]ATP by scintillation counting based radiometry assay relative to control.
Assay [12] addresses Activin receptor type-1-like (Homo sapiens) (UniProt P37023). Description: Inhibition of recombinant human ALK1 (142 to end residues) assessed as residual activity at 10 uM using casein as substrate incubated for 40 mins in presence of [gamma-33ATP] by scintillation counting based radiometry assay relative to control.
Assay [13] deals with Ephrin type-B receptor 3 (Homo sapiens) (UniProt P54753). Description: Inhibition of recombinant human EphB3 (599 to 920 residues) assessed as residual activity at 10 uM using poly(Glu, Tyr) 4:1 as substrate at 40 mins in presence of [gamma-33ATP] by scintillation counting based radiometry assay relative to control.
The target in assay [14] is cAMP-dependent protein kinase catalytic subunit alpha (Homo sapiens) (UniProt P17612). In words: Inhibition of recombinant human PKA assessed as residual activity at 10 uM relative to control.
The test system of assay [15] is CDK18/Cyclin Y (Homo sapiens), Q07002+Q8ND76 [T166M]. In words: Inhibition of recombinant full length human CDK18/cyclinY T166M mutant assessed as residual activity at 10 uM using YRRAAVPPSPSLS as substrate incubated for 40 mins in presence of [gamma-33ATP] by scintillation counting based radiometry assay relative to control. The assay is classed as protein-complex assay.

In assay [16] the target is CDK7/Cyclin H/MNAT1 (Homo sapiens) (UniProt P51946+P50613+P51948). Description: Inhibition of recombinant full length human CDK7/cyclinH/MAT1 assessed as residual activity at 10 uM using peptide as substrate incubated for 40 mins in presence of [gamma-33ATP] by scintillation counting based radiometry assay relative to control. It counts as protein-complex assay.
For assay [17], the target named is Mitogen-activated protein kinase kinase kinase 11 (Homo sapiens) (UniProt Q16584). Description: Inhibition of recombinant human MLK3 assessed as residual activity at 10 uM using by scintillation counting based radiometry assay relative to control.
Mitogen-activated protein kinase kinase kinase 11 (Homo sapiens), sequence (Q16584 whole entry, looked up): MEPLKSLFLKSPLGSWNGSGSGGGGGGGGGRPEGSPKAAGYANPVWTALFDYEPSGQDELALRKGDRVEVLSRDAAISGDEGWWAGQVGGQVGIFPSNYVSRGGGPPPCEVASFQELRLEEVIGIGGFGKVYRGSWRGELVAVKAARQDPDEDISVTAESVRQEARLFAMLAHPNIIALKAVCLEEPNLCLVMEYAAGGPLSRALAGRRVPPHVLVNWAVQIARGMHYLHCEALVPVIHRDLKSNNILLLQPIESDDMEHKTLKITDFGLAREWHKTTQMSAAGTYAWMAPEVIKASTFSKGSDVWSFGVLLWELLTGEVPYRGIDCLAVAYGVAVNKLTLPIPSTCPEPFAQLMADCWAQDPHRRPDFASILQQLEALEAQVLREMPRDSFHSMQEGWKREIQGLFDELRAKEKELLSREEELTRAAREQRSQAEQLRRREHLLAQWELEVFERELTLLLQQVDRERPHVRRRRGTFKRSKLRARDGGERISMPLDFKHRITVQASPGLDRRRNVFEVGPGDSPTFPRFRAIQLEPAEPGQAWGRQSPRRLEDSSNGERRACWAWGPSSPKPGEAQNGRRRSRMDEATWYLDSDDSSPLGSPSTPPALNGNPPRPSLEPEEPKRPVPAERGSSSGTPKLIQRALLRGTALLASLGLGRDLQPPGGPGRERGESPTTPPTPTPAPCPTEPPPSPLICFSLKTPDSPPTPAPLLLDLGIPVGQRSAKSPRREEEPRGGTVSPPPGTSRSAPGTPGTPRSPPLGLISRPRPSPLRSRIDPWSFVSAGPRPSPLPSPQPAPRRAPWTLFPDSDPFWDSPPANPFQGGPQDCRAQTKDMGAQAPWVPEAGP
Assay [18] deals with Serine/threonine-protein kinase Nek2 (Homo sapiens) (UniProt P51955). In words: Inhibition of recombinant full-length human NEK2 assessed as residual activity at 10 uM using myelin basic protein as substrate measured after 40 mins in presence of [gamma33P]ATP by scintillation counting based radiometry assay relative to control.
Serine/threonine-protein kinase Nek2 (Homo sapiens), sequence (P51955 whole entry, the tested form may be a part, canonical isoform): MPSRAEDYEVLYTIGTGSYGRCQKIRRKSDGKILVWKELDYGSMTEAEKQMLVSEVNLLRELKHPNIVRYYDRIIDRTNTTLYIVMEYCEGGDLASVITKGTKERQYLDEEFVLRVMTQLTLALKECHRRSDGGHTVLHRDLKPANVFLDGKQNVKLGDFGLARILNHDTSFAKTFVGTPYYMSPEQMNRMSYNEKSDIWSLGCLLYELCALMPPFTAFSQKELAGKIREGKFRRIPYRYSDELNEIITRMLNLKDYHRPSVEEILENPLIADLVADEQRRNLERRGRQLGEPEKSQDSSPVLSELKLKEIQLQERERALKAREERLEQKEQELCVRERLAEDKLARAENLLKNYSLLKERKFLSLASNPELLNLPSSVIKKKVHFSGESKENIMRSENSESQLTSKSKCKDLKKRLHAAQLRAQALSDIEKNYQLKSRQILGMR
Assay [19] has as its system Phosphorylase b kinase gamma catalytic chain, liver/testis isoform (Homo sapiens), P15735 [F290L]. In words: Inhibition of recombinant human PhKgamma2 F290L mutant (1 to 301 residues) assessed as residual activity at 10 uM using KKLNRTLSFAEPG as substrate incubated for 40 mins in presence of [gamma33P]ATP by scintillation counting based radiometry assay relative to control.

Assay [20] has as its system Macrophage colony-stimulating factor 1 receptor (Homo sapiens), P07333 [Y969C]. Description: Inhibition of recombinant human FMS Y969C mutant (538 to end residues) assessed as residual activity at 10 uM using EEEEYEEEEEEYYIIEEEEEEYEEEEEEYYEEEEEEKKKK as substrate at 40 mins in presence of [gamma-33ATP] by scintillation counting based radiometry assay relative to control.

Assay [21] has as its target Serine/threonine-protein kinase ICK (Homo sapiens) (UniProt Q9UPZ9). Description: Inhibition of human ICK (1 to 312 residues) assessed as residual activity at 10 uM using RRRFRPASPLRGP as substrate after 40 mins by [gamma-33ATP] radiometric assay relative to control.
The target in assay [22] is Mitogen-activated protein kinase 11 (Homo sapiens) (UniProt Q15759). In words: Inhibition of recombinant human full length SAPK2b assessed as residual activity at 10 uM using myelin basic protein as substrate incubated for 40 mins in presence of [gamma33P]ATP by scintillation counting based radiometry assay relative to control.

SMILES strings stand for the structures.

Activin receptor type-1-like (Homo sapiens), sequence (P37023 whole entry, the tested form may be a part): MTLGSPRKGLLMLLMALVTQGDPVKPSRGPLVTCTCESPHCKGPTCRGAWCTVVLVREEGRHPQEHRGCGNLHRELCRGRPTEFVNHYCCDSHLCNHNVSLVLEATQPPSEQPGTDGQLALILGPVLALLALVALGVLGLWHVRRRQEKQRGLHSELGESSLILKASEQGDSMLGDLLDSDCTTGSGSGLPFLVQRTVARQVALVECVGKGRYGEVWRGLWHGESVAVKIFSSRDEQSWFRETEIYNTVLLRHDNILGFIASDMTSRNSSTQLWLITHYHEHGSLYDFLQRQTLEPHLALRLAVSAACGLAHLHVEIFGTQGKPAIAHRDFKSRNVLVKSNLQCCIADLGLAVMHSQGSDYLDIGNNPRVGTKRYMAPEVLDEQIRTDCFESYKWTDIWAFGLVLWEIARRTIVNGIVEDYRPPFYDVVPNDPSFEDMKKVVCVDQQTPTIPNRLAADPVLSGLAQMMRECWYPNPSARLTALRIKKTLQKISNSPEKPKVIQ
Macrophage colony-stimulating factor 1 receptor (Homo sapiens), P07333 [Y969C], sequence (P07333 whole entry Y969C): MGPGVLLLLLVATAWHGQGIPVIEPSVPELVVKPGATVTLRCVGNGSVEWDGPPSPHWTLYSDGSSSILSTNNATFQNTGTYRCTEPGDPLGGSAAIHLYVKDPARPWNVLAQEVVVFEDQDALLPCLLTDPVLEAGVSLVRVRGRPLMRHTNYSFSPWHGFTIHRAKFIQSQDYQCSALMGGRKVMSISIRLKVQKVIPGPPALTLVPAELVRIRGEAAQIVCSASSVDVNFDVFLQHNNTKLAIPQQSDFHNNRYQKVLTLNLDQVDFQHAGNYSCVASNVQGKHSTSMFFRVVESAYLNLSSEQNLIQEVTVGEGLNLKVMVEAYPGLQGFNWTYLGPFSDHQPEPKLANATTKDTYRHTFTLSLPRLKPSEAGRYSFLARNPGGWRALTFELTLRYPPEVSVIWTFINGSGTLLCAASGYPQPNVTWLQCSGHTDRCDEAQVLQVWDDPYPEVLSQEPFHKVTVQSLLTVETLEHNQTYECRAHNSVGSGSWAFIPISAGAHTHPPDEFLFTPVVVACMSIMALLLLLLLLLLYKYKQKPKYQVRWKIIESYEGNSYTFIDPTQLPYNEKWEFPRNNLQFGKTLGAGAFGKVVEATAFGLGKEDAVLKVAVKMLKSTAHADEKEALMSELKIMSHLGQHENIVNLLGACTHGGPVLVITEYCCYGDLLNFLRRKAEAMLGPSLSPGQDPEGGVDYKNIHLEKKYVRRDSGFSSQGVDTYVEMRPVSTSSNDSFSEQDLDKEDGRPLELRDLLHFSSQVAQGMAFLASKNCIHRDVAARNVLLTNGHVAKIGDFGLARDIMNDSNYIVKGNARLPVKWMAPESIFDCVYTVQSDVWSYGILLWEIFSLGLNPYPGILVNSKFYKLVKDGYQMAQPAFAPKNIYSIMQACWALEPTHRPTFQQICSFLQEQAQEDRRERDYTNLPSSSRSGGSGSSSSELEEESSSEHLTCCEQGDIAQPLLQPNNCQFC
Phosphorylase b kinase gamma catalytic chain, liver/testis isoform (Homo sapiens), P15735 [F290L], sequence (P15735 whole entry F290L, the tested form may be a part, canonical isoform): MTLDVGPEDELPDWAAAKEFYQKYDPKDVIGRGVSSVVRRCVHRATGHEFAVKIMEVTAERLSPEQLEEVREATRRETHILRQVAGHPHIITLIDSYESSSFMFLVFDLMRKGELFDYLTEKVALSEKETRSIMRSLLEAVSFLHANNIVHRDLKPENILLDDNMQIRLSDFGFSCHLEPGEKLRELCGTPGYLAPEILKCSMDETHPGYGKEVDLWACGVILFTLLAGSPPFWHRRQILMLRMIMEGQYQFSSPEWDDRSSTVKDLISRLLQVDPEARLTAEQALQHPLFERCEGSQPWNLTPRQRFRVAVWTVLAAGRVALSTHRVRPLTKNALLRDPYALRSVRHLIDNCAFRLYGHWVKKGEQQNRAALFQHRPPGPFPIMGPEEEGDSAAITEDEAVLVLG

For `C[C@@H](c1ccccc1)n1nnc2cnc3ccc(-c4cnc5[nH]ccc5c4)cc3c21`, the Activity in assay [1] worked out at 86%; in the assay filed under Homo sapiens [2], 3%; in assay [3], 72%; in assay [4], 1%; in assay [5] it was 28%; in assay [6], 91%. Further, the Activity is 106% in assay [7]; 3% in assay [8]; 21% in assay [9]; 69% in the assay filed under Homo sapiens [10]; 93% in assay [11]; 78% in [12]. Besides, the Activity in [13] was 123%; in [14], 82%; in assay [15], 94%; in assay [16] it was 80%; in assay [17], 73%; in [18] it was 75%. In addition, the Activity in [19] was 65%; in assay [20], 52%; in [21], 44%; in assay [22], 93%.

The record behind these values is ChEMBL document CHEMBL4334471, “Discovery of 1,8-disubstituted-[1,2,3]triazolo[4,5-c]quinoline derivatives as a new class of Hippo signaling pathway inhibitors” (Bioorg Med Chem Lett, 2019).
